These results are taken from patent US20260060908A1, “USE OF FATTY ACIDS FOR MICROBIOME BENEFIT AND COMPOSITIONS COMPRISING THE SAME” (Conopco, Inc., d/b/a UNILEVER, priority 2022, published 2026).

The test system of assay [1] is S. Hominis. Put plainly: Growth of S. hominis in the presence of fatty acids (absorbance 620 nm growth curve). The assay is classed as cell-based. The following applies: saturated fatty acids, concentration per example, at the end of 24 to 30 hours, control = 100.0. The protocol:
• 5% of fatty acid stock is made in DMSO-0.5 g in 10 ml of DMSO • 2.68% of fatty acid (Total volume 5 ml) is made with 2.68 ml of 5% fatty acid stock+[…] of DMSO+0.45 ml of Tween 80. • Test samples: 50 μl 2.68% stock in 4.95 ml 1/10th diluted TSB (test samples)
(§1) The microorganism (S. epidermidis or S. hominis as the case may be) was streaked on TSA agar plate and incubated at 37° C. for 24 hr
Plate cultures of the microorganism was used to set up 0.3 OD620nm (corresponding to log 10^8 CFU/ml) in 1× PBS (pH7.4)
(§2) The test samples (200 μl) were added to 96 well plate, followed by addition of above set cultures (20 μl).
(§3) The 96 well plate was placed in a Tecan reader and absorbance was read at 620 nm for a period of 24-30 h with a kinetic interval of 1 h
(§4) The values obtained is plotted as a growth curve with X-axis representing time in hour and Y-axis as absorbance read at 620 nm.
Experiments similar to those in Table-1 were carried out except that the microorganism used was S. Hominis.

For assay [2], the system named is S. epidermidis. Put plainly: Growth of S. epidermidis in the presence of fatty acids (absorbance 620 nm growth curve). The assay is classed as cell-based. The conditions noted are these: Staphylococcus epidermidis, read-out: % increase over control; for activity at 0.001 %: unsaturated fatty acids at 0.001%, at the end of 24 to 30 hours, control = 100.0; for activity at 0.01 %: oleic acid, linoleic acid at 0.01% and their combination, control = 100. The method, then:
Experiments were carried out on the growth of S. Epidermidis in the presence of various fatty acids using the following procedure.
as §1, §2, §3, §4

Molecules are shown by their SMILES.

As for `CCCCCCCCCCCC(=O)O` [D, Lauric acid], the “% increase over control” value in assay [1] was found to be 63.0%.

`CCCCCCCCCCCCCC(=O)O` [E, myristic acid]: in assay [1], the “% increase over control” value turned out to be 52.0%. On the same count and under the same terms, the result for `CCCCCCCCCCCCCCCCCCCC(=O)O` [Example 5, arachidic acid] reads 123.0%; that for `CCCCCCCCCCCCCCCCCCCCCCCC(=O)O` [Example 6, lignoceric acid], 153.0%.

Consider `CCCCCCCC/C=C\CCCCCCCC(=O)O` [Example 7, Oleic acid], for which the activity at 0.001 % in assay [2] turned out to be 132%. On to `CCCCC/C=C\C/C=C\CCCCCCCC(=O)O` [Example 8, Linoleic acid], for which, in assay [2], the activity at 0.001 % is 146%. Turning to `CCCCCCCC/C=C\CCCCCCCC(=O)O` [Example 11, Oleic acid], the activity at 0.01 % in assay [2] came out at 135%. Same read-out and setting: with `CCCCC/C=C\C/C=C\CCCCCCCC(=O)O` [Example 12, Linoleic acid] the figure was 132%. For the compound `CCCCCCCCCCCCCCCC(=O)O` [Example F, palmitic acid], the “% increase over control” value in assay [1] is reported as 104.0%.

For `CCCCCC/C=C\CCCCCCCC(=O)O` [Example G, Palmitoleic acid, reference compound], the activity at 0.001 % in assay [2] turned out to be 98.4%.
